Measured values reported in patent US10251892B2, “Bicyclic heterocycles as FGFR4 inhibitors” (Incyte Corporation, priority 2015, dated 2019).

Molecular target: FGFR3 enzyme (Homo sapiens (Human), UniProt P22607)
Test: FGFR Enzymatic Assay (peptide phosphorylation, FRET), FGFR3
Format: biochemical
Settings: IC50 ratio showing FGFR3 selectivity; pre-incubated for 4 hours
Procedure: The inhibitor potency of the exemplified compounds was measured in an enzyme assay that measures peptide phosphorylation using FRET measurements to detect product formation. Inhibitors were serially diluted in DMSO and a volume of 0.5 μL was transferred to the wells of a 384-well plate.
GraphPad prism3 was used to analyze the data.

FGFR3 enzyme, sequence (P22607 23-806): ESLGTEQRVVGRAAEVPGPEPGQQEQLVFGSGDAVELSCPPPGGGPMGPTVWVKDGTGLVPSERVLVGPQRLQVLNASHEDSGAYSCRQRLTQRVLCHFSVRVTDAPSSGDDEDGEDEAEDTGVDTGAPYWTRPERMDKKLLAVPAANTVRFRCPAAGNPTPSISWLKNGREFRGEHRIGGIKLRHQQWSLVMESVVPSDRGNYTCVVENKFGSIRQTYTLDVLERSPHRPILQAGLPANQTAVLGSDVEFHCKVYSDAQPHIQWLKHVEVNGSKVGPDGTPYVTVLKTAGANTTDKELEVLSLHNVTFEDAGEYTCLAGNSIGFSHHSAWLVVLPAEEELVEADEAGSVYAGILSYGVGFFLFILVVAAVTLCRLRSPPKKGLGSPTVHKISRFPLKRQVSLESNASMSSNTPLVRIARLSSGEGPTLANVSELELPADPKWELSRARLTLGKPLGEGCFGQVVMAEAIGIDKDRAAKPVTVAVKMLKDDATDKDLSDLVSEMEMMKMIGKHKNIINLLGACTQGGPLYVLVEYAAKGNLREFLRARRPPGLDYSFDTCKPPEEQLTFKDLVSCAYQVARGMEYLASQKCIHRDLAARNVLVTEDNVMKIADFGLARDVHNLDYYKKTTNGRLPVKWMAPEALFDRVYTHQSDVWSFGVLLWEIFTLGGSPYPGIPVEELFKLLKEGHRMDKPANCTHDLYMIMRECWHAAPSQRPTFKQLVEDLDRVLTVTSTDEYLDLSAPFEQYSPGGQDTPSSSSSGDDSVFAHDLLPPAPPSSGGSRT

Compound | FGFR1/FGFR3 | FGFR4/FGFR3
CCN1C(=O)N(c2c(F)c(OC)cc(OC)c2F)Cc2cnc(-c3ccc(CC#N)cc3)cc21 [Example 180, 2-(4-(3-(2,6-difluoro-3,5-dimethoxyphenyl)-1-ethyl-2-oxo-1,2,3,4-tetrahydropyrido[4,3-d]pyrimidin-7-yl)phenyl)acetonitrile] | >5 | >5
COc1cc(OC)c(F)c(N2Cc3cnc(-c4cn(C)nc4C)cc3N(c3ccc4ccncc4c3)C2=O)c1F [Example 63, 3-(2,6-difluoro-3,5-dimethoxyphenyl)-7-(1,3-dimethyl-1H-pyrazol-4-yl)-1-(isoquinolin-7-yl)-3,4-dihydropyrido[4,3-d]pyrimidin-2(1H)-one] | >10 | >5
COc1cc(OC)c(F)c(N2Cc3cnc(-c4ccc(C5(C#N)CCC5)nc4)cc3N(c3ccncn3)C2=O)c1F [Example 135, 1-(5-(3-(2,6-difluoro-3,5-dimethoxyphenyl)-2-oxo-1-(pyrimidin-4-yl)-1,2,3,4-tetrahydropyrido[4,3-d]pyrimidin-7-yl)pyridin-2-yl)cyclobutanecarbonitrile] | >5 | >10
COc1cc(OC)c(F)c(N2Cc3cnc(-c4cn(C)nc4C)cc3N(c3ccnnc3)C2=O)c1F [Example 57, 3-(2,6-difluoro-3,5-dimethoxyphenyl)-7-(1,3-dimethyl-1H-pyrazol-4-yl)-1-(pyridazin-4-yl)-3,4-dihydropyrido[4,3-d]pyrimidin-2(1H)-one] | >10 | >10
COc1cnc(N2C(=O)N(c3c(F)c(OC)cc(OC)c3F)Cc3cnc(-c4cn(C)nc4C)cc32)cn1 [Example 112, 3-(2,6-difluoro-3,5-dimethoxyphenyl)-7-(1,3-dimethyl-1H-pyrazol-4-yl)-1-(5-methoxypyrazin-2-yl)-3,4-dihydropyrido[4,3-d]pyrimidin-2(1H)-one] | >3 | >5
COc1cc(OC)c(F)c(N2Cc3cnc(-c4cnn(CCCN5CCOCC5)c4)cc3C3(CC3)C2=O)c1F [Example 151, 2′-(2,6-difluoro-3,5-dimethoxyphenyl)-6′-(1-(3-morpholinopropyl)-1H-pyrazol-4-yl)-1′H-spiro[cyclopropane-1,4′-[2,7]naphthyridin]-3′(2′H)-one] | >5 | >5
COc1cc(OC)c(F)c(N2Cc3cnc(-c4cn(C)nc4C)cc3N(c3ccncn3)C2=O)c1F [Example 45, 3-(2,6-difluoro-3,5-dimethoxyphenyl)-7-(1,3-dimethyl-1H-pyrazol-4-yl)-1-pyrimidin-4-yl-3,4-dihydropyrido[4,3-d]pyrimidin-2(1H)-one] | >10 | >10
COc1cc(OC)c(F)c(N2Cc3cnc(-c4cn(C)nc4C)cc3N(c3ccc(-n4cccn4)cc3)C2=O)c1F [Example 77, 1-(4-(1H-pyrazol-1-yl)phenyl)-3-(2,6-difluoro-3,5-dimethoxyphenyl)-7-(1,3-dimethyl-1H-pyrazol-4-yl)-3,4-dihydropyrido[4,3-d]pyrimidin-2(1H)-one] | >5 | >10
COc1cc(OC)c(F)c(N2Cc3cnc(-c4ccc(C5(C#N)CCC5)nc4)cc3N(Cc3nnc(C)o3)C2=O)c1F [Example 187, 1-(5-{3-(2,6-difluoro-3,5-dimethoxyphenyl)-1-[(5-methyl-1,3,4-oxadiazol-2-yl)methyl]-2-oxo-1,2,3,4-tetrahydropyrido[4,3-d]pyrimidin-7-yl}pyridin-2-yl)cyclobutanecarbonitrile] | >10 | >10
COc1cc(OC)c(F)c(N2Cc3cnc(-c4cn(C)nc4C)cc3N(Cc3cnccn3)C2=O)c1F [Example 85, 3-(2,6-difluoro-3,5-dimethoxyphenyl)-7-(1,3-dimethyl-1H-pyrazol-4-yl)-1-(pyrazin-2-ylmethyl)-3,4-dihydropyrido[4,3-d]pyrimidin-2(1H)-one] | >5 | >10
